# Laboratory results as given in patent publication US4923880A, “4,5,6,7-Tetrahydroisothiazolo (4,5-c) pyridine derivatives” (H. Lundbeck A/S, priority 1988, dated 1990).
# Structures can show the parent of a compound that is named as a salt. Where two headings read alike, the source gives them in different places.
# What was measured:
# [1] = molecular target: T1, central muscarinic M-1 receptors (Rattus norvegicus, UniProt P08482); assay: biochemical; type: binding; conditions: rat brain homogenate, 1.0 nM 3H-pirenzepine, 60 min at 25° C.
# T1 sequence (P08482 1-460): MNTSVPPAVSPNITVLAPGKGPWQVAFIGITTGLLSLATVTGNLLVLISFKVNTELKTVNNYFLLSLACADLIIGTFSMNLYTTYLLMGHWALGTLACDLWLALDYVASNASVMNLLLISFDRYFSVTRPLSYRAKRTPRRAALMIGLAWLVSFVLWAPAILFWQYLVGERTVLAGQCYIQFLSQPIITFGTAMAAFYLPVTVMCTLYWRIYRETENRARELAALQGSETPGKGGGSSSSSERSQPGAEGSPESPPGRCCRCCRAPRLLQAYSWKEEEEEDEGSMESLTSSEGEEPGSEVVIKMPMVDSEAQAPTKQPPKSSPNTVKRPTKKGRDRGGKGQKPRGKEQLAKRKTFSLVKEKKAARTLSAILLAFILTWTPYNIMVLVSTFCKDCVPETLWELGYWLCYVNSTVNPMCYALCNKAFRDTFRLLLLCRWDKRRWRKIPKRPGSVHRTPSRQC
# Procedure: ^3 H-pirenzepine binding was performed essentially as described by Watson et al., 1983, the conditions being very much the same as for ^3 H-oxotremorine binding, except that aliquots were incubated with 1.0 nM ^3 H-pirenzepine for 60 min. at 25° C. and that the reaction was stopped by direct filtration followed by 3 washes with 4 ml buffer.
# [2] = molecular target: central cholinergic receptors; assay: 3H-oxotremorine M binding (displacement from rat brain homogenates); conditions: rat brain homogenate, 40 min at 30° C., pH 7.4, read-out: 3H-Oxo-M IC50
# Procedure: The new compounds have high affinity to central cholinergic receptors, as measured by the ability of the compounds to displace tritiated oxotremorine-M from rat brain homogenates. The compounds have also high affinity to central muscarinic M-1 receptors, as defined by their ability to displace tritiated pirenzepine from rat brain homogenates. […]
# ^3 H-oxotremorine M binding was performed essentially as described by Birdsdall et al., 1980. Briefly, rat brains were homogenized in 100 vol (w/v) 10 mM Na,K-phosphate buffer (pH 7.4) and aliquots incubated with ^3 H-oxotremorine M (84.9 Ci/mmol, NEN) alone or in the presence of test compound in a total volume of 1.5 ml for 40 min. at 30° C. The reaction was stopped by adding 5 ml ice-cold buffer and filtered through Whatman GF/B filters soaked previously in 0.1% polyethylenimin (Sigma) for minimum 30 min. The filters were washed once with the same volume of buffer, transferred to scintillation vials and extracted in scintillation fluid (Pico-fluor 15, Packard) for at least two hours before counted in a liquid scintillation spectrometer (Beckman LS 1800). Non-specific binding was estimated at 10 μM atropine and all estimations made in triplicate. At least two displacement curves were made for each compound tested.
# [3] = after peripheral administration; cited from earlier work
# [4] = after peripheral administration; cited from earlier work; remark: listed apart in the source
# [5] = cited from earlier work
SMILES,IC50 [1],IC50 [2],further results
"C#CCOc1nsc2c1CNCC2C (stereo not shown) [Compound 19, 7-Methyl-3-(2-propynyloxy)-4,5,6,7-tetrahydroisothiazolo[4,5-c]pyridine, fumarate]",6.9 nM,1.8 nM,–
"C#CCOc1nsc2c1CN(C)CC2C (stereo not drawn) [Compound 22, (-+)-5,7-Dimethyl-3-(2-propynyloxy)-4,5,6,7-tetrahydroisothiazolo[4,5-c]pyridine, oxalate]",6.7 nM,5.3 nM,–
"COc1nsc2c1CNCC2C (stereo not shown) [Compound 18, 3-Methoxy-7-methyl-4,5,6,7-tetrahydroisothiazolo[4,5-c]pyridine, fumarate]",130 nM,24 nM,–
"C#CCOc1nsc2c1CN(C)CC2C (single isomer, unassigned; (-)) [Compound 24, (-)-5,7-Dimethyl-3-(2-propynyloxy)-4,5,6,7-tetrahydroisothiazolo[4,5-c]pyridine, oxalate]",4.3 nM,–,IC50 ([2]; oxalate): 3.8 nM
"C#CCOc1noc2c1CNCC2C (single isomer, unassigned; (+)) [(+)-O-propargyl-7-Me-THPO, (+)7-methyl-3-(2-propynyloxy)-4,5,6,7-tetrahydroisoxazolo[4,5c]pyridine, reference compound]",61 nM,18 nM,–
"CCOc1nsc2c1CNCC2 [Compound 5, 3-Ethoxy-4,5,6,7-tetrahydroisothiazolo[4,5-c]pyridine, maleate]",370 nM,29 nM,–
"COC(=O)C1=CCCN(C)C1 [Arecoline, methyl 1-methyl-1,2,5,6-tetrahydropyridine-3-carboxylate]",–,1.9 nM,penetration of the BBB [3]: capable of penetrating the BBB after peripheral administration; central effects [4]: very weak and frequently negligible central effects; hydrolysis of the ester group in vivo [5]: very rapidly hydrolyzed in vivo
"C#CCOc1nsc2c1CN(C)CC2C (single isomer, unassigned; (+)) [Compound 23, (+)-5,7-Dimethyl-3-(2-propynyloxy)-4,5,6,7-tetrahydroisothiazolo[4,5-c]pyridine, oxalate]",14 nM,–,IC50 ([2]; oxalate): 18 nM
"C#CCOc1nsc2c1CNCC2C (single isomer, unassigned; (-)) [Compound 21, (-)-7-Methyl-3-(2-propynyloxy)-4,5,6,7-tetrahydroisothiazolo[4,5-c]pyridine, fumarate]",8.1 nM,–,IC50 ([2]; fumarate): 0.93 nM
"COc1nsc2c1CNCC2 [Compound 3, 3-Methoxy-4,5,6,7-tetrahydroisothiazole[4,5-c]pyridine Hydrochloride]",1700 nM,18 nM,–
"C#CCOc1nsc2c1CNCC2C (single isomer, unassigned; (+)) [Compound 20, (+)-7-Methyl-3-(2-propynyloxy)-4,5,6,7-tetrahydroisothiazolo[4,5-c]pyridine, fumarate]",5.5 nM,–,IC50 ([2]; fumarate): 1.6 nM
"C#CCOc1nsc2c1CNCC2 [Compound 8, 3-(2-Propynyloxy)-4,5,6,7-tetrahydroisothiazole[4,5-c]pyridine, hemifumarate]",53 nM,6.3 nM,–
"C=CCOc1nsc2c1CNCC2C (stereo not drawn) [Compound 25, (-+)-7-Methyl-3-(2-propenyloxy)-4,5,6,7-tetrahydroisothiazolo[4,5-c]pyridine, fumarate]",11 nM,5.3 nM,–
